Key:
Assay type in all cases: cell-based
[1] = tested on: phosphorylated PLCγ2; assay: Phosphorylated PLCγ2 in human CD8+ T cells from whole blood in vitro (flow cytometry); conditions: T-cell, whole blood from six human donors, 2 hrs 37° C., anti-CD3/anti-CD28 + crosslinker 60 minutes, read-out: Average mean EC50±standard deviation, phosphorylated PLCγ2
Description: (§1) To assess these candidate clinical proximal biomarkers of Cbl-b inhibition on T cells, pharmacodynamic analysis was performed. Whole blood was obtained from human donors and incubated with increasing concentrations of Compound 23. The response to Cbl-b inhibition on phosphorylated HS1, PLCγ2, and ZAP70 was measured in CD8^+ T cells using flow cytometry. This technique is highly quantitative and can measure multiple phosphorylation markers in different cell populations within the same sample.
(§2) For pharmacodynamic analysis, whole blood was obtained from six human donors (BioIVT) and used for flow cytometry assays to evaluate phosphorylated biomarkers HS1, PLCγ2, and ZAP70 in CD8^+ T cells.
(§3) Whole blood was collected in a collection tube coated with sodium heparin. […]
(§4) Stained cells were run on an Attune NxT Acoustic Focusing Flow Cytometer (Thermo Fisher, cat. No. A29004), and data was analyzed using FlowJo (v10.6.1) and GraphPad Prism (v8.00) software. Single lymphocytes were gated for CD8^+ cells (CD45^+/CD8^+) cells, and population frequencies were calculated for each population. The data is quantified by the percent positive. […] As protein becomes phosphorylated the fluorescence increases resulting in a larger fraction of the cells entering that gate. Each population was evaluated for % positive pY759-PLCγ2, pY397-HS1 levels, pY319/Syk (Y352)-ZAP70 levels.

[2] = tested on: pY319-Zap70; assay: Phosphoprotein screen in human whole blood with CBL inhibitor at 10 uM: ZAP70; conditions: 1 hr 37° C., human whole blood 8 donors, anti-CD3/CD28 + crosslinker 60 minutes
Description: (§5) To identify proximal biomarkers of CBL-B inhibition in immune cells, a panel of phosphorylated proteins were screened in human whole blood incubated with CBL-B inhibitor and concomitant anti-CD3 and anti-CD28 antibodies. The effect of CBL-B inhibition was assessed across multiple cellular signaling networks.
(§6) Human heparinized whole blood from 8 donors was received after an overnight shipment at 4° C. The blood was plated, treated with CBL inhibitor at 10 uM and incubated at 37° C. for 60 minutes. After incubation, the cells were stimulated with anti-CD3/CD28 followed by a cross-linking antibody (30 μg of goat anti-mouse IgG (H+L) antibody (Invitrogen)). After 60 minutes, the cells were fixed, and stained using surface markers for T cells (CD3^+CD4^+& CD3^+CD8^+) and analyzed by flow cytometry for target phosphorylation of the following markers: pY180/pY511-ITK, pY397-HS1, pY759-PLCg2, pY783-PLCg1, pY525/pY526/pY348-SYK & pY319-Zap70.
(§7) Fold change of each biomarker was calculated with the following example equation: […]
(§8) Whole blood from eight human donors was collected in sodium heparin anti-coagulant treated with 10 μM of Compound 23 for 1 hr at 37° C. […] Fold change of % phosphorylation normalized to DMSO was quantitated in T cells (CD8^+) using flow cytometry is provided in FIGS. 6A-6B.

[3] = tested on: phosphorylated ZAP70; assay: Phosphorylated ZAP70 in human CD8+ T cells from whole blood in vitro (flow cytometry); conditions: T-cell, whole blood from six human donors, 2 hrs 37° C., anti-CD3/anti-CD28 + crosslinker 60 minutes, read-out: Average mean EC50±standard deviation, phosphorylated ZAP70
Description: as §1, §2, §3, §4

[4] = tested on: phosphorylated HS1; assay: Phosphorylated HS1 in human CD8+ T cells from whole blood in vitro (flow cytometry)
Description: as §1, §2, §3
as §4, with “levels. […]” for “levels.”

[5] = tested on: pY397-HS1; assay: Phosphoprotein screen in human whole blood with CBL inhibitor at 10 uM: HS1; conditions: 1 hr 37° C., human whole blood 8 donors, anti-CD3/CD28 + crosslinker 60 minutes
Description: as §5, §6, §7, §8

What does the source list for `C[C@H]1CCCN(Cc2cc3c(c(C(F)(F)F)c2)CN(c2cccc([C@]4(c5nncn5C)C[C@@H](C)C4)c2)C3=O)C1` [Compound 23]?
EC50 [1]: 74 ± 4.95 nM; increased phosphorylation of ZAP70 compared to DMSO control [2]: 2-3 fold; EC50 [3]: 120 ± 8.97 nM; EC50 ([4]; T-cell, whole blood from six human donors, 2 hrs 37° C., anti-CD3/anti-CD28 + crosslinker 60 minutes, CD8+ T cells, read-out: Average mean EC50±standard deviation, phosphorylated HS1): 89 ± 7.91 nM; phosphorylated HS1 in human whole blood (FIG. 7) ([4]; human donors n=6, two hours at 37° C., anti-CD3 and anti-CD28 co-stimulation, crosslinked): concentration-dependent increase; increased phosphorylation of HS1 compared to DMSO control [5]: 3-4 fold

Reference: patent US20230355599A1, “BIOMARKERS FOR CBL, AND COMPOSITIONS AND METHODS FOR THEIR USE” (NURIX THERAPEUTICS, INC., priority 2022, published 2023)
